Measured values: patent US10626144B2, “Peptide derivatives and uses thereof” (Nosopharm, priority 2014, dated 2020)
Numbered stars: 1 amine (or outer) side, 2 acyl side, 3 side chain; on linkers, the order of the positions; unused ones are H or OH. Square brackets hold non-standard residues; d marks the D form. Peptide text beside a SMILES is read from it. * marks the point of attachment. Phe(4-COOH) = N[C@@H](Cc1ccc(C(=O)O)cc1)C(=O)O; Phe(4-Cl) = N[C@@H](Cc1ccc(Cl)cc1)C(=O)O; Dab(3S-OH) = NC[C@H](O)[C@H](N)C(=O)O; Lys(iPr) = CC(C)NCCCC[C@H](N)C(=O)O; X5 = O=C(C(N[*:1])c1cccs1)[*:2]; ΔZArg = N=C(N)NCC/C=C(\N)C(=O)O; Lys(Me) = CNCCCC[C@H](N)C(=O)O; dOrn = NCCC[C@@H](N)C(=O)O; Orn = NCCC[C@H](N)C(=O)O; NH(CH2)4NH2 = NCCCCN*; NHiPr = CC(C)N*

Key:
Experiment in all cases: MIC, broth microdilution (CLSI), reference strain
Conditions in all cases: CAMHB
[1] = tested on: Pseudomonas aeruginosa ATCC 27853
[2] = tested on: Escherichia coli ATCC 25922
[3] = tested on: Staphylococcus aureus ATCC 13709
[4] = tested on: Acinetobacter baumannii ATCC 19606

| SMILES | Pa: MIC Pseudomonas aeruginosa ATCC 27853 [1] | Ec: MIC Escherichia coli ATCC 25922 [2] | Sa: MIC Staphylococcus aureus ATCC 13709 [3] | Ab: MIC Acinetobacter baumannii ATCC 19606 [4] |
| --- | --- | --- | --- | --- |
| CC(C)NCCCC[C@H](N)C(=O)N[C@H](C(=O)N[C@@H](C)C(=O)NCC(=O)N[C@H](CCCN)C(=O)N1CCC[C@H]1C(=O)N[C@@H](Cc1cnc[nH]1)C(=O)N[C@@H](CCCCN)C(=O)N/C(=C\CCNC(=N)N)C(=O)O)[C@@H](O)CN [24.147] (H-[Lys(iPr)][Dab(3S-OH)]AG[dOrn]PHK[ΔZArg]-OH) | − (>32 μg/mL) | − (>32 μg/mL) | − (>32 μg/mL) | − (>32 μg/mL) |
| CNCCCC[C@H](N)C(=O)N[C@H](C(=O)N[C@@H](C)C(=O)NCC(=O)N[C@H](CCCN)C(=O)N1CCC[C@H]1C(=O)N[C@@H](Cc1ccc(Cl)cc1)C(=O)N[C@@H](CCCCN)C(=O)N/C(=C\CCNC(=N)N)C(=O)O)[C@@H](O)CN [24.148] (H-[Lys(Me)][Dab(3S-OH)]AG[dOrn]P[Phe(4-Cl)]K[ΔZArg]-OH) | − (>32 μg/mL) | ++ (≤8 μg/mL) | ++ (≤8 μg/mL) | − (>32 μg/mL) |
| CNCCCC[C@H](N)C(=O)N[C@H](C(=O)N[C@@H](C)C(=O)NCC(=O)N[C@H](CCCN)C(=O)N1CCC[C@H]1C(=O)N[C@@H](Cc1cnc[nH]1)C(=O)N[C@@H](CCCCN)C(=O)N/C(=C\CCNC(=N)N)C(=O)O)[C@@H](O)CN [24.149] (H-[Lys(Me)][Dab(3S-OH)]AG[dOrn]PHK[ΔZArg]-OH) | − (>32 μg/mL) | + (≤32 μg/mL) | + (≤32 μg/mL) | − (>32 μg/mL) |
| C[C@H](NC(=O)[C@@H](NC(=O)[C@@H](N)CCCN)[C@@H](O)CN)C(=O)NCC(=O)N[C@H](CCCN)C(=O)N1CCC[C@H]1C(=O)N[C@@H](Cc1cnc[nH]1)C(=O)N[C@@H](CCCCN)C(=O)N/C(=C\CCNC(=N)N)C(N)=O [24.150] (H-[Orn][Dab(3S-OH)]AG[dOrn]PHK[ΔZArg]-NH2) | − (>32 μg/mL) | + (≤32 μg/mL) | ++ (≤8 μg/mL) | − (>32 μg/mL) |
| CNCCCC[C@H](NC(=O)[C@H](Cc1cnc[nH]1)NC(=O)[C@@H]1CCCN1C(=O)[C@@H](CCCN)NC(=O)CNC(=O)[C@H](C)NC(=O)[C@@H](NC(=O)[C@@H](N)CCCCN)[C@@H](O)CN)C(=O)N[C@H](CCCNC(=N)N)C(N)=O [24.155] (H-K[Dab(3S-OH)]AG[dOrn]PH[Lys(Me)][dR]-NH2) | − (>32 μg/mL) | − (>32 μg/mL) | ++ (≤8 μg/mL) | − (>32 μg/mL) |
| C[C@H](NC(=O)[C@@H](NC(=O)[C@@H](N)CCCCN)[C@@H](O)CN)C(=O)NCC(=O)N[C@H](CCCN)C(=O)N1CCC[C@H]1C(=O)NC(C(=O)N[C@@H](CCCCN)C(=O)N/C(=C\CCNC(=N)N)C(=O)O)c1cccs1 (stereo partly drawn) [24.157] (H-K[Dab(3S-OH)]AG[dOrn]P[X5]K[ΔZArg]-OH) | − (>32 μg/mL) | − (>32 μg/mL) | + (≤32 μg/mL) | − (>32 μg/mL) |
| C[C@H](NC(=O)[C@@H](NC(=O)[C@@H](N)CCCCN)[C@@H](O)CN)C(=O)NCC(=O)N[C@H](CCCN)C(=O)N1CCC[C@H]1C(=O)N[C@@H](C)C(=O)N[C@@H](CCCCN)C(=O)N/C(=C\CCNC(=N)N)C(=O)O [24.158] (H-K[Dab(3S-OH)]AG[dOrn]PAK[ΔZArg]-OH) | − (>32 μg/mL) | − (>32 μg/mL) | + (≤32 μg/mL) | − (>32 μg/mL) |
| COC(=O)/C(=C/CCNC(=N)N)NC(=O)[C@H](CCCCN)NC(=O)[C@H](Cc1cnc[nH]1)NC(=O)[C@@H]1CCCN1C(=O)[C@@H](CCCN)NC(=O)CNC(=O)[C@H](C)NC(=O)[C@@H](NC(=O)[C@@H](N)CCCCN)[C@@H](O)CN [24.160] (H-K[Dab(3S-OH)]AG[dOrn]PHK[ΔZArg]-OMe) | − (>32 μg/mL) | ++ (≤8 μg/mL) | ++ (≤8 μg/mL) | − (>32 μg/mL) |
| C[C@H](NC(=O)[C@@H](NC(=O)[C@@H](N)CCCCN)[C@@H](O)CN)C(=O)NCC(=O)N[C@H](CCCN)C(=O)N1CCC[C@H]1C(=O)N[C@@H](Cc1ccc(C(=O)O)cc1)C(=O)N[C@@H](CCCCN)C(=O)N/C(=C\CCNC(=N)N)C(=O)O [24.161] (H-K[Dab(3S-OH)]AG[dOrn]P[Phe(4-COOH)]K[ΔZArg]-OH) | − (>32 μg/mL) | ++ (≤8 μg/mL) | ++ (≤8 μg/mL) | − (>32 μg/mL) |
| CC(C)NC(=O)/C(=C/CCNC(=N)N)NC(=O)[C@H](CCCCN)NC(=O)[C@H](Cc1cnc[nH]1)NC(=O)[C@@H]1CCCN1C(=O)[C@@H](CCCN)NC(=O)CNC(=O)[C@H](C)NC(=O)[C@@H](NC(=O)[C@@H](N)CCCCN)[C@@H](O)CN [24.162] (H-K[Dab(3S-OH)]AG[dOrn]PHK[ΔZArg]-NHiPr) | − (>32 μg/mL) | + (≤32 μg/mL) | ++ (≤8 μg/mL) | − (>32 μg/mL) |
| C[C@@H](O)[C@H](NC(=O)[C@@H](NC(=O)[C@@H](N)CCCCN)[C@@H](O)CN)C(=O)NCC(=O)N[C@H](CCCN)C(=O)N1CCC[C@H]1C(=O)N[C@@H](Cc1cnc[nH]1)C(=O)N[C@@H](CCCCN)C(=O)N/C(=C\CCNC(=N)N)C(=O)O [25.3] (H-K[Dab(3S-OH)]TG[dOrn]PHK[ΔZArg]-OH) | − (>32 μg/mL) | + (≤32 μg/mL) | + (≤32 μg/mL) | − (>32 μg/mL) |
| N=C(N)NCC/C=C(\NC(=O)[C@H](CCCCN)NC(=O)[C@H](Cc1cnc[nH]1)NC(=O)[C@@H]1CCCN1C(=O)[C@@H](CCCN)NC(=O)CNC(=O)[C@H](CO)NC(=O)[C@@H](NC(=O)[C@@H](N)CCCCN)[C@@H](O)CN)C(=O)N[C@@H](CCCCN)C(=O)NCCCCN [26.1] (H-K[Dab(3S-OH)]SG[dOrn]PHK[ΔZArg]K-{NH(CH2)4NH2}) | ++ (≤8 μg/mL) | ++ (≤8 μg/mL) | ++ (≤8 μg/mL) | + (≤32 μg/mL) |
| N=C(N)NCC/C=C(\NC(=O)[C@H](CCCCN)NC(=O)[C@H](Cc1cnc[nH]1)NC(=O)[C@@H]1CCCN1C(=O)[C@@H](CCCN)NC(=O)CNC(=O)[C@H](CO)NC(=O)[C@@H](NC(=O)[C@@H](N)CCCCN)[C@@H](O)CN)C(=O)O [26.2] (H-K[Dab(3S-OH)]SG[dOrn]PHK[ΔZArg]-OH) | − (>32 μg/mL) | + (≤32 μg/mL) | + (≤32 μg/mL) | − (>32 μg/mL) |
